Source: paper PMC11510342, “Synthesis, Characterization, Bioavailability and Antimicrobial Studies of Cefuroxime-Based Organic Salts and Ionic Liquids” (Pharmaceutics, 2024)
Read-outs that look alike come from different tables or passages of the source.

Legend:
[1] = Water solubility at 37 °C by consecutive addition of water until full dissolution; format: physicochemical
Protocol: The solubility of the prepared cefuroxime OSILs was determined by adding known volumes of water consecutively to a certain amount of CFX-OSILs at 37 °C until full dissolution was observed. Figure 3 presents the maximum water solubility values of the prepared CFX-OSILs.

[2] = Octanol-water partition studies (Kow); format: physicochemical
3T3 murine fibroblasts = test: Cytotoxicity on 3T3 cells (MTT assay); format: cell-based; conditions: 24 h; for Toxicity to 3T3 murine fibroblasts compared with the original drug (CFX): 100 µM; for IC50: read-out: IC50 for toxicity on 3T3 murine fibroblasts
[3] = system: Escherichia coli (ATCC 25922); test: Antimicrobial activity, growth inhibition (OD 600 nm); format: cell-based; conditions: for IC50: read-out: IC50 E. coli
[4] = system: Pseudomonas aeruginosa (ATCC 27853); test: as above; format: cell-based; conditions: for IC50: read-out: IC50 P. aeruginosa
[5] = system: Bacillus subtilis (ATCC 6633); test: as above; format: cell-based; conditions: for IC50: read-out: IC50 B. subtilis
[6] = cited from earlier work
[7] = 6 h, 0.03–100 µM, interval in brackets
[8] = Mus musculus, Fibroblast, MTT, 1–100 µM
[9] = Escherichia coli, ATCC25922, 6 h, 0.03–100 µM, interval in brackets
[10] = Pseudomonas aeruginosa, ATCC27853, 6 h, 0.03–100 µM, interval in brackets
[11] = Bacillus subtilis, ATCC6633, 6 h, 0.03–100 µM, interval in brackets

IC50 [3, 9] | IC50 [4, 10] | IC50 [5, 11] | SMILES | Toxicity to 3T3 murine fibroblasts compared with the original drug (CFX) (3T3 murine fibroblasts; MTT) | IC50 (3T3 murine fibroblasts; MTT, 1–100 µM) | IC50 [3, 7] | IC50 [4, 7] | IC50 [5, 7] | IC50 (3T3 murine fibroblasts; [8]) | also measured
– | – | – | CCCCCCCCCCCCCCCC[n+]1ccccc1.CO/N=C(\C(=O)N[C@H]1C(=O)N2C(C(=O)[O-])=C(COC(N)=O)CS[C@@H]12)c1ccco1 [[C16Py][CFX]] | more toxic | 11.7 µM | 9.66 µM | 4.54 µM | 5.08 µM | – | Increase in water solubility relative to free CFX [1]: > 7.7 fold; Water solubility [1]: 5500 µg/mL; Octanol-water partition (Kow) [2]: 2.5
– | – | – | CCCCCCCCCC[n+]1ccccc1.CO/N=C(\C(=O)N[C@@H]1C(=O)N2C(C(=O)[O-])=C(COC(N)=O)CS[C@H]12)c1ccco1 [[C10Py][CFX]] | more toxic | 62.5 µM | 90.3 µM | 16.6 µM | 23 µM | – | Increase in water solubility relative to free CFX [1]: > 7.7 fold; Water solubility [1]: 5400 µg/mL; Kow in comparison with the original drug (CFX) [2]: approximately four-times greater; Relative toxicity on 3T3 cells (comparison of IC50 values) (3T3 murine fibroblasts; MTT): approximately five-times less toxic
– | – | – | CCCCCCCCCCCCCCCC[n+]1ccn(C)c1.CO/N=C(\C(=O)N[C@@H]1C(=O)N2C(C(=O)[O-])=C(COC(N)=O)CS[C@H]12)c1ccco1 [[C16MIM][CFX]] | more toxic | 13.9 µM | 9.23 µM | 4.02 µM | 2.65 µM | – | Water solubility [1]: 11000 µg/mL; Octanol-water partition (Kow) [2]: 1.7
– | – | – | CO/N=C(\C(=O)N[C@@H]1C(=O)N2C(C(=O)O)=C(COC(N)=O)CS[C@H]12)c1ccco1 [cefuroxime sodium] | – | – | – | – | – | – | Serum concentration ([6]; single 500 mg intramuscular dose, for a period of 2.5 to 3 h): 8000 ng/mL; Half-life ([6]; single 500 mg intramuscular dose): 1.17 h
11.3 µM | 4.81 µM | 5.19 µM | CCCCCCCCCCCCCCCC[n+]1ccn(C)c1 [[C16MIM]Br, reference compound] | – | – | – | – | – | 13.3 µM | –
> 100 µM | > 100 µM | > 100 µM | CCCCCC[n+]1ccccc1 [[C6Py]Br, reference compound] | – | – | – | – | – | > 100 µM | –
– | – | – | c1cc[n+](CCCCCCCCCC[n+]2ccccc2)cc1 [[PyC10Py]Br2, decylbispyridinium dibromide, reference compound] | – | – | – | – | – | – | IC50 (3T3 murine fibroblasts; Mus musculus, Fibroblast): > 100 µM; IC50 ([3]; Escherichia coli, ATCC25922, 6 h): > 100 µM; IC50 ([4]; Pseudomonas aeruginosa, ATCC27853, 6 h): > 100 µM; IC50 ([5]; Bacillus subtilis, ATCC6633, 6 h): > 100 µM
– | – | – | CO/N=C(\C(=O)N[C@@H]1C(=O)N2C(C(=O)OC(C)OC(C)=O)=C(COC(N)=O)CS[C@H]12)c1ccco1 (some centres unmarked) [cefuroxime axetil] | – | – | – | – | – | – | Time of peak concentration in serum ([6]; after oral administration): approximately 2 h
> 100 µM | 95.5 µM | 80.9 µM | CCCCCCCCCC[n+]1ccccc1 [[C10Py]Br, reference compound] | – | – | – | – | – | 98 µM | –
– | – | – | CO/N=C(\C(=O)N[C@@H]1C(=O)N2C(C(=O)[O-])=C(COC(N)=O)CS[C@H]12)c1ccco1.CO/N=C(\C(=O)N[C@@H]1C(=O)N2C(C(=O)[O-])=C(COC(N)=O)CS[C@H]12)c1ccco1.c1cc[n+](CCCCCCCCCC[n+]2ccccc2)cc1 [[PyC10Py][CFX]2] | no additional detrimental effect | > 100 µM | 4.92 µM | 0.66 µM | 0.85 µM | – | Water solubility ([1]; water, 37 °C): 140000 µg/mL; Antimicrobial activity against E. coli compared with CFX ([3]; times more effective than CFX): 1.3; Antimicrobial activity against P. aeruginosa compared with CFX [4]: comparable activity to CFX; Antimicrobial activity against B. subtilis compared with CFX [5]: comparable activity to CFX
– | – | – | CCCCCC[n+]1ccccc1.CO/N=C(\C(=O)N[C@@H]1C(=O)N2C(C(=O)[O-])=C(COC(N)=O)CS[C@H]12)c1ccco1 [[C6Py][CFX]] | no additional detrimental effect | > 100 µM | 26.8 µM | 3.99 µM | 8.85 µM | – | –

SMILES | IC50 [3, 9] | IC50 [4, 10] | IC50 [5, 11] | Toxicity to 3T3 murine fibroblasts compared with the original drug (CFX) (3T3 murine fibroblasts; MTT) | IC50 (3T3 murine fibroblasts; MTT, 1–100 µM) | IC50 [3, 7] | IC50 [4, 7] | IC50 [5, 7] | IC50 (3T3 murine fibroblasts; [8]) | also measured
CO/N=C(\C(=O)N[C@@H]1C(=O)N2C(C(=O)O)=C(COC(N)=O)CS[C@H]12)c1ccco1 [CFX, Cefuroxime] | 6.42 µM | 0.55 µM | 0.95 µM | – | – | – | – | – | > 100 µM | solubility ([1]; water, 37 °C): < 700 µg/mL
